Among the data in publication PMC4795541, “A Rapid and Quantitative Flow Cytometry Method for the Analysis of Membrane Disruptive Antimicrobial Activity” (PLoS ONE, 2016) are MIC and MBC values, retold here.

In assay [1] the test system is F. nucleatum ATCC 25586. An excerpt:
(§1) The bacterial strains; Fusobacterium nucleatum ATCC 25586, Streptococcus mutans Ingbritt, Staphylococcus aureus (MSSA) ATCC 29213; Staphylococcus aureus (MRSA) ATCC 43300; Enterococcus faecalis ATCC 29212; Enterobacter aerogenes ATCC 13048; Pseudomonas aeruginosa strain PAO1-LAC, ATCC 47085; Klebsiella pneumoniae ATCC 13883; Acinetobacter baumannii strain 2208, ATCC 19606; Escherichia coli ATCC 25922 lyophilised or glycerol stocks were obtained from the culture collection of the Oral Health Cooperative Research Centre, The Melbourne Dental School, University of Melbourne, Australia. These strains were selected for this study as they are widely used in antimicrobial studies and are considered to be important pathogens and major targets for antibiotic resistant studies. Bacteria were grown aerobically and maintained by passage at ambient temperature (E. coli, K. pneumoniae, A. baumannii and S. aureus strains) or at 37°C (P. aeruginosa, E. faecalis and E. aerogenes) on horse blood agar (10% v/v defibrinated horse blood, 4.4% w/v Oxoid Blood Agar Base No. 2). S. mutans and F. nucleatum were grown anaerobically (MK3 anaerobic workstation, Don Whitley Scientific Limited, England) and maintained by passage at 37°C on Todd Hewitt agar (3.6% w/v Oxoid Todd-Hewitt Broth, 1.5% w/v sucrose, 1.5% w/v BactoTM Agar, 0.8% w/v Oxoid Yeast Extract) or horse blood agar, respectively. For the antimicrobial peptide assays a 20 mL starter culture was produced by taking single colonies from blood or Todd Hewitt agar plates, respectively, to inoculate either: Luria Broth (LB; 1% w/v BactoTM Tryptone, 1% w/v NaCl, 0.5% w/v Oxoid Yeast Extract, pH 7.5, Thermo Scientific Pty, Ltd, Sydney, Australia) for bacteria; E. coli, K. pneumoniae, P. aeruginosa, A. baumannii, E. faecalis, E. aerogenes and S. aureus which were grown aerobically at 37°C, or Todd Hewitt broth (3.6% w/v Oxoid Todd-Hewitt Broth, 1.5% w/v sucrose, 0.8% w/v Oxoid Yeast 9 Extract) for S. mutans, or Brain Heart Infusion broth (BHI; 3.7% w/v Oxoid BHI, 0.05% w/v L-cysteine) for F. nucleatum which were both grown anaerobically at 37°C. After overnight incubation, 0.5–2.0 mL of the starter culture was used to inoculate the appropriate fresh broth (200 mL) and growth monitored at 650 nm using a spectrophotometer (model 275E; Perkin-Elmer, Sydney, Australia) with culture purity checked by microscopic examination and culture. Bacteria were harvested during late exponential growth phase and viability and bacteria/mL determined using a BacLight viability kit (Invitrogen, Sydney, Australia) and a Quanta SC-MPL flow cytometer (Beckman coulter Pty, Ltd, Sydney, Australia).
(§2) Antibacterial assays were undertaken to determinate the minimum inhibitory concentration (MIC), minimum bactericidal concentration (MBC) and minimum membrane disruptive concentration (MDC) of each of the antimicrobial peptides (AMP) and AMP analogues (S1 Table). For each bacterim a stock solution (2.5 × 10^6 cells/mL) in the respective media was made and an aliquot incubated with AMPs within 15 minutes from viable cell count and stock preparation. All AMPs were dissolved in DMSO and a 500 μM stock solution prepared by adding the respective media and serial dilutions (250–0.244 μM) of the AMP in media (100 μL/well) made just prior addition of bacteria. […] One hundred microliter aliquots of the bacterial stock solution (2.5 × 10^5 cells/well) were added to the AMP serial dilutions and incubated at 37°C for 90 min. Assay preparation and incubations were conducted in aerobic or anaerobic conditions dependent on the bacteria. Bacteria were also incubated in the absence of AMP to serve as a growth control for the assay. After the 90 minute incubation period the antimicrobial activity (MIC, MBC and MDC) was determined as follows;
(§3) For MIC the CLSI broth microdilution assay was followed as we have previously described.

For assay [2], the system named is S. mutans Ingbritt.
From the text: as §1, §2, §3

Assay [3] concerns F. nucleatum ATCC 25586.
From the text: as §1, §2
(§4) For determination of MBC, the CLSI protocol was followed, with the modifications being that due to the rapid action of the AMPs the assay incubation time was shortened from 16–20 hours to 90 minutes.
This is another data set of the same source.

Assay [4] deals with S. mutans Ingbritt.
From the text: as §1, §2, §4
The source holds these as a separate data set.

[5] abbreviates: F. nucleatum ATCC 25586, 2.5 × 10^5 cells/well, 90 min peptide/bacteria incubation at 37°C, then growth at OD650, average of 3 assays ± SD.
Setting [6] is: S. mutans Ingbritt, 90 min peptide/bacteria incubation at 37°C, then growth at OD650, average of 3 assays ± SD.
[7] abbreviates: F. nucleatum ATCC 25586, 90 min peptide/bacteria incubation, CFU on agar, ≥ 99.9% reduction, average of 3 assays ± SD.
The mark [8] stands for this setting: S. mutans Ingbritt, 90 min peptide/bacteria incubation, CFU on agar, ≥ 99.9% reduction, average of 3 assays ± SD.

Converted amounts (≈) assume the structure as drawn. Like-named read-outs stand apart in the source and are kept apart here. Marks after values point to notes of the source that are not given here. Where a SMILES comes first, the peptide text is derived from it. Where no end group is shown, it is not given here. [ ]: non-standard residue; d: D form. Phe(ol) = N[C@H](CO)Cc1ccccc1; Dab = NCC[C@H](N)C(=O)O; Dap = NC[C@H](N)C(=O)O; Aib = CC(C)(N)C(=O)O

By MIC is commonly meant the least concentration at which growth counts as inhibited. Lower therefore signals a more susceptible organism. By MBC is commonly meant the lowest tested concentration that kills the bacteria rather than only halting them. With `CC(=O)NC(C)(C)C(=O)N1CCC[C@H]1C(=O)NC(C)(C)C(=O)N[C@@H](C)C(=O)NC(C)(C)C(=O)N[C@@H](C)C(=O)N[C@@H](CCC(N)=O)C(=O)NC(C)(C)C(=O)N[C@H](C(=O)NC(C)(C)C(=O)NCC(=O)N[C@@H](CC(C)C)C(=O)NC(C)(C)C(=O)N1CCC[C@H]1C(=O)N[C@H](C(=O)NC(C)(C)C(=O)NC(C)(C)C(=O)N[C@@H](CCC(=O)O)C(=O)N[C@@H](CCC(N)=O)C(=O)N[C@H](CO)Cc1ccccc1)C(C)C)C(C)C` [Alamethicin] (Ac-[Aib]P[Aib]A[Aib]AQ[Aib]V[Aib]GL[Aib]PV[Aib][Aib]EQ[Phe(ol)]; N-terminus assumed), the MIC against F. nucleatum ATCC 25586 [1] (setting [5]) was 22.6 ± 12.7 µM (≈ 44.4 µg/mL); in the assay on S. mutans Ingbritt [2] (setting [6]), 29.4 ± 8.2 µM (≈ 57.8 µg/mL). Moreover, the MBC against F. nucleatum ATCC 25586 [3] (setting [7]) turned out to be 18.0 ± 3.9 µM (≈ 35.4 µg/mL); against S. mutans Ingbritt [4] (setting [8]) it was 39.8 ± 0.3 µM (≈ 78.2 µg/mL).

Take `CC[C@H](C)[C@H](NC(=O)CN)C(=O)NCC(=O)N[C@@H](CCN)C(=O)N[C@@H](Cc1ccccc1)C(=O)N[C@@H](CC(C)C)C(=O)N[C@@H](Cc1c[nH]cn1)C(=O)N[C@@H](CO)C(=O)N[C@@H](C)C(=O)N[C@@H](CCN)C(=O)N[C@@H](CCN)C(=O)N[C@@H](Cc1ccccc1)C(=O)NCC(=O)N[C@@H](CCN)C(=O)N[C@@H](C)C(=O)N[C@@H](Cc1ccccc1)C(=O)N[C@H](C(=O)NCC(=O)N[C@@H](CCC(=O)O)C(=O)N[C@H](C(=O)N[C@@H](CCSC)C(=O)N[C@@H](CC(N)=O)C(=O)N[C@@H](CO)C(N)=O)[C@@H](C)CC)C(C)C` [Magainin-Dab] (H-GIG[Dab]FLHSA[Dab][Dab]FG[Dab]AFVGEIMNS-NH2; N-terminus assumed): the MIC with F. nucleatum ATCC 25586 [1] (setting [5]) is 6.3 ± 0.5 µM (≈ 14.8 µg/mL); in the assay with S. mutans Ingbritt [2] (Ingbritt, 24 h) it was >200^c μM. In the assay with S. mutans Ingbritt [4] (Ingbritt), the MBC is >200^c μM.

In the case of `CC[C@H](C)[C@H](NC(=O)CN)C(=O)NCC(=O)N[C@@H](CN)C(=O)N[C@@H](Cc1ccccc1)C(=O)N[C@@H](CC(C)C)C(=O)N[C@@H](Cc1c[nH]cn1)C(=O)N[C@@H](CO)C(=O)N[C@@H](C)C(=O)N[C@@H](CN)C(=O)N[C@@H](CN)C(=O)N[C@@H](Cc1ccccc1)C(=O)NCC(=O)N[C@@H](CN)C(=O)N[C@@H](C)C(=O)N[C@@H](Cc1ccccc1)C(=O)N[C@H](C(=O)NCC(=O)N[C@@H](CCC(=O)O)C(=O)N[C@H](C(=O)N[C@@H](CCSC)C(=O)N[C@@H](CC(N)=O)C(=O)N[C@@H](CO)C(N)=O)[C@@H](C)CC)C(C)C` [Magainin-Dap] (H-GIG[Dap]FLHSA[Dap][Dap]FG[Dap]AFVGEIMNS-NH2; N-terminus assumed), the MIC against F. nucleatum ATCC 25586 [1] (ATCC 25586, 24 h) is 18.4±9.7^c μM; in the assay with S. mutans Ingbritt [2] (Ingbritt, 24 h) it was >200^c μM. Besides, the MBC against F. nucleatum ATCC 25586 [3] (ATCC 25586) is on record as 29.7±0.4^c μM; in the assay with S. mutans Ingbritt [4] (Ingbritt), >200^c μM.

Take “GIGKFLHSAKKFGKAFVGEIMNS-NH2 [Magainin II]”: the MIC stood at 10.2 ± 1.5 µM in the assay on F. nucleatum ATCC 25586 [1] (setting [5]); 10.1 ± 0.6 µM in the assay on F. nucleatum ATCC 25586 [1] (F. nucleatum ATCC 25586, 2.5 × 10^5 cells/well, 90 min peptide/bacteria incubation at 37°C, then growth at OD650, average of 3 assays ± SD, listed as Native); 109.3 ± 20.4 µM with S. mutans Ingbritt [2] (setting [6]); 123.4 ± 9.2 µM in the assay with S. mutans Ingbritt [2] (S. mutans Ingbritt, 90 min peptide/bacteria incubation at 37°C, then growth at OD650, average of 3 assays ± SD, listed as Native). For the same compound, the MBC worked out at 8.1 ± 1.3 µM in the assay on F. nucleatum ATCC 25586 [3] (setting [7]); 7.3 ± 1.0 µM in the assay with F. nucleatum ATCC 25586 [3] (F. nucleatum ATCC 25586, 90 min peptide/bacteria incubation, CFU on agar, ≥ 99.9% reduction, average of 3 assays ± SD, listed as Native); 109 ± 20.2 µM in the assay with S. mutans Ingbritt [4] (setting [8]); 117.1 ± 2.3 µM against S. mutans Ingbritt [4] (S. mutans Ingbritt, 90 min peptide/bacteria incubation, CFU on agar, ≥ 99.9% reduction, average of 3 assays ± SD, listed as Native).

Regarding “GIGRFLHSARRFGRAFVGEIMNS-NH2 [Magainin-Arg]”, the minimal inhibitory concentration (MIC) with F. nucleatum ATCC 25586 [1] (ATCC 25586, 24 h) is 2.5±0.3^c μM; in the assay with S. mutans Ingbritt [2] (Ingbritt, 24 h) it was 41.8±6.8^c μM. Further, the figures for the MBC with F. nucleatum ATCC 25586 [3] (ATCC 25586) and against S. mutans Ingbritt [4] (Ingbritt) were 2.5±0.8^c μM and 37.3±1.9^c μM, respectively.

For the compound “GIGXFLHSAXXFGXAFVGEIMNS-CONH2 [Magainin-Orn]”, the figures for the MIC in the assay with F. nucleatum ATCC 25586 [1] (setting [5]) and in the assay on S. mutans Ingbritt [2] (setting [6]) were 13.1 ± 0.5 µM and >200^c μM, respectively. Also, the MBC against F. nucleatum ATCC 25586 [3] (setting [7]) is 14.9 ± 0.2 µM; against S. mutans Ingbritt [4] (setting [8]), >200^c μM.
